Legend:
[1] = test system: PA 101885; experiment: Checkerboard combination study / MIC; format: cell-based, Pseudomonas aeruginosa
[2] = test system: PA 259; experiment: Checkerboard combination study / MIC; format: cell-based, Pseudomonas aeruginosa
[3] = test system: PA 260; experiment: Checkerboard combination study / MIC; format: cell-based, Pseudomonas aeruginosa
[4] = test system: PA 262; experiment: Checkerboard combination study / MIC; format: cell-based, Pseudomonas aeruginosa
[5] = test system: PA 264; experiment: Checkerboard combination study / MIC; format: cell-based, Pseudomonas aeruginosa
[6] = test system: PA 91433; experiment: Checkerboard combination study / MIC; format: cell-based, Pseudomonas aeruginosa; conditions: for MICCombination (2) / FIC2: PA 91433
[7] = test system: PA 114228; experiment: Checkerboard combination study / MIC; format: cell-based, Pseudomonas aeruginosa
[8] = test system: Galleria mellonella larvae; experiment: Galleria mellonella tolerability study; conditions: 100 mg/kg and 200 mg/kg injected alone; after 48 h
Experimental: In vitro and in vivo discordances have been observed in antimicrobial chemotherapy, thus, therapeutic efficacy may not necessarily be reliably extrapolated based on in vitro data alone. […] Colistin (100 mg/kg), an antibiotic well known for its toxicity towards eukaryotes, served as a positive control for this experiment while PBS served as negative control. […] Survivability was scored for a total of 4 days.
In vivo larvae-infection model. In vivo synergistic effects were determined using Galleria mellonella infection model, as previously described (20). Briefly, worms were purchased from The Worm Lady® Live Feeder (ON, Canada), stored in their natural habitat at 16° C., and used within 10 days of delivery. The worms (average weight of 250 mg) were used for tolerability and efficacy studies. Tolerability study was performed by injecting 10 μL of antimicrobial agents only at concentrations equivalent to 100 mg/kg or 200 mg/kg. The worms (ten in each group) were incubated at 37° C. and monitored for 96 h. […] Overnight grown culture of respective MDR P. aeruginosa isolate was standardized to 0.5 McFarland standard and diluted in PBS to a final concentration of […]. 10 μL of this solution (5 CFU) was injected into each worm and incubated for 3 h at 37° C. […] Worms treated with 10 μL PBS or high concentrations of test antibiotics served as negative and positive control, respectively. The worms were incubated at 37° C. in Petri dishes lined with filter paper and scored for survivability every 6 h for up to 48 h. This experiment was repeated to give a total of thirty worms (n=30) in each case. Survival data curves were plotted using Kaplan-Meier survival analysis.

[9] = test system: MDR PA101885-challenged larvae; experiment: Galleria mellonella infection model, efficacy; format: in vivo
Experimental: In vivo synergistic effects were determined using Galleria mellonella infection model, as previously described (20). Briefly, worms were purchased from The Worm Lady® Live Feeder (ON, Canada), stored in their natural habitat at 16° C., and used within 10 days of delivery. The worms (average weight of 250 mg) were used for tolerability and efficacy studies. Tolerability study was performed by injecting 10 μL of antimicrobial agents only at concentrations equivalent to 100 mg/kg or 200 mg/kg. The worms (ten in each group) were incubated at 37° C. and monitored for 96 h. For efficacy studies, the virulence and bacterial load required to kill 100% of the worms within 12-18 h (with no treatment) was first determined, which is approximately 5 CFU. Overnight grown culture of respective MDR P. aeruginosa isolate was standardized to 0.5 McFarland standard and diluted in PBS to a final concentration of 5×10^2CFU/mL. 10 μL of this solution (5 CFU) was injected into each worm and incubated for 3 h at 37° C. […] Worms treated with 10 μL PBS or high concentrations of test antibiotics served as negative and positive control, respectively. The worms were incubated at 37° C. in Petri dishes lined with filter paper and scored for survivability every 6 h for up to 48 h. This experiment was repeated to give a total of thirty worms (n=30) in each case. Survival data curves were plotted using Kaplan-Meier survival analysis.

For “5-O-(Octylcyclam)-tobramycin.9TFA [Compound 2]”, which “MICCombination (2)” value ([1]; MIC of 2 combined with AZT) is on record?
Its value is 16 µg/mL.

What about the “MICCombination (2)” value ([1]; MIC of 2 combined with CAZ) of the same substance?
The value was 8 µg/mL.

And the “MICCombination (2)” value ([1]; MIC of 2 combined with CEF)?
Its value is 16 µg/mL.

And the “MICCombination (2)” value ([1]; MIC of 2 combined with DOR)?
The value was 4 µg/mL.

And the “MICCombination (2)” value ([1]; MIC of 2 combined with MER)?
Its value is 8 µg/mL.

What about the “MICCombination (2)” value ([1]; MIC of 2 combined with PIP) of the same substance?
Its value is 16 µg/mL.

What about the FIC2 ([1]; with AZT) of the same substance?
Its FIC2 is under 0.0625.

What about the FIC2 ([1]; with CAZ) of the same substance?
Its FIC2 is under 0.0313.

And the FIC2 ([1]; with CEF)?
The FIC2 was under 0.0625.

And the FIC2 ([1]; with DOR)?
Its FIC2 is under 0.0156.

And the FIC2 ([1]; with MER)?
Its FIC2 is under 0.0313.

What about the FIC2 ([1]; with PIP) of the same substance?
Its FIC2 is under 0.0625.

And the “MICCombination (2)” value ([2]; MIC of 2 combined with AZT)?
Its value is 16 µg/mL.

What about the “MICCombination (2)” value ([2]; MIC of 2 combined with CAZ) of the same substance?
Its value is 16 µg/mL.

What about the “MICCombination (2)” value ([2]; MIC of 2 combined with CEF) of the same substance?
The value was 16 µg/mL.

And the “MICCombination (2)” value ([2]; MIC of 2 combined with MER)?
Its value is 16 µg/mL.

And the “MICCombination (2)” value ([2]; MIC of 2 combined with PIP)?
Its value is 1 µg/mL.

And the FIC2 ([2]; with AZT)?
The FIC2 was under 0.0625.

What about the FIC2 ([2]; with CAZ) of the same substance?
Its FIC2 is under 0.0625.

And the FIC2 ([2]; with CEF)?
Its FIC2 is under 0.0625.

And the FIC2 ([2]; with MER)?
The FIC2 was under 0.0625.

And the FIC2 ([2]; with PIP)?
The FIC2 was under 0.0039.

What about the “MICCombination (2)” value ([3]; MIC of 2 combined with AZT) of the same substance?
Its value is 16 µg/mL.

And the “MICCombination (2)” value ([3]; MIC of 2 combined with CAZ)?
Its value is 4 µg/mL.

What about the “MICCombination (2)” value ([3]; MIC of 2 combined with CEF) of the same substance?
The value was 8 µg/mL.

And the “MICCombination (2)” value ([3]; MIC of 2 combined with DOR)?
The value was 8 µg/mL.

And the “MICCombination (2)” value ([3]; MIC of 2 combined with MER)?
Its value is 8 µg/mL.

What about the “MICCombination (2)” value ([3]; MIC of 2 combined with PIP) of the same substance?
Its value is 16 µg/mL.

And the FIC2 ([3]; with AZT)?
Its FIC2 is under 0.0625.

What about the FIC2 ([3]; with CAZ) of the same substance?
The FIC2 was under 0.0156.

What about the FIC2 ([3]; with CEF) of the same substance?
Its FIC2 is under 0.0313.

And the FIC2 ([3]; with DOR)?
The FIC2 was under 0.0313.

And the FIC2 ([3]; with MER)?
The FIC2 was under 0.0313.

And the FIC2 ([3]; with PIP)?
Its FIC2 is under 0.0625.

What about the “MICCombination (2)” value ([4]; MIC of 2 combined with AZT) of the same substance?
The value was 8 µg/mL.

What about the “MICCombination (2)” value ([4]; MIC of 2 combined with CAZ) of the same substance?
The value was 16 µg/mL.

And the “MICCombination (2)” value ([4]; MIC of 2 combined with CEF)?
The value was 16 µg/mL.

And the “MICCombination (2)” value ([4]; MIC of 2 combined with DOR)?
The value was 16 µg/mL.

And the “MICCombination (2)” value ([4]; MIC of 2 combined with MER)?
The value was 16 µg/mL.

And the “MICCombination (2)” value ([4]; MIC of 2 combined with PIP)?
Its value is 4 µg/mL.

What about the FIC2 ([4]; with AZT) of the same substance?
Its FIC2 is under 0.0313.

And the FIC2 ([4]; with CAZ)?
Its FIC2 is under 0.0625.

And the FIC2 ([4]; with CEF)?
The FIC2 was under 0.0625.

And the FIC2 ([4]; with DOR)?
The FIC2 was under 0.0625.

And the FIC2 ([4]; with MER)?
The FIC2 was under 0.0625.

What about the FIC2 ([4]; with PIP) of the same substance?
Its FIC2 is under 0.0156.

What about the “MICCombination (2)” value ([5]; MIC of 2 combined with AZT) of the same substance?
The value was 8 µg/mL.

And the “MICCombination (2)” value ([5]; MIC of 2 combined with CAZ)?
Its value is 8 µg/mL.

What about the “MICCombination (2)” value ([5]; MIC of 2 combined with CEF) of the same substance?
Its value is 16 µg/mL.

What about the “MICCombination (2)” value ([5]; MIC of 2 combined with DOR) of the same substance?
The value was 4 µg/mL.

What about the “MICCombination (2)” value ([5]; MIC of 2 combined with MER) of the same substance?
The value was 4 µg/mL.

What about the “MICCombination (2)” value ([5]; MIC of 2 combined with PIP) of the same substance?
Its value is 4 µg/mL.

And the FIC2 ([5]; with AZT)?
Its FIC2 is under 0.0313.

And the FIC2 ([5]; with CAZ)?
Its FIC2 is under 0.0313.

What about the FIC2 ([5]; with CEF) of the same substance?
The FIC2 was under 0.0625.

And the FIC2 ([5]; with DOR)?
The FIC2 was under 0.0156.

What about the FIC2 ([5]; with MER) of the same substance?
The FIC2 was under 0.0156.

And the FIC2 ([5]; with PIP)?
The FIC2 was under 0.0156.

And the “MICCombination (2)” value ([6]; MIC of 2 combined with AZT)?
Its value is 16 µg/mL.

What about the “MICCombination (2)” value ([6]; MIC of 2 combined with CAZ) of the same substance?
Its value is 0.25 µg/mL.

And the “MICCombination (2)” value ([6]; MIC of 2 combined with CEF)?
Its value is 16 µg/mL.

And the “MICCombination (2)” value ([6]; MIC of 2 combined with DOR)?
Its value is 8 µg/mL.

And the “MICCombination (2)” value ([6]; MIC of 2 combined with MER)?
Its value is 4 µg/mL.

What about the potentiation of meropenem ([6]; by compound 2, colistin-resistant clinical isolate PA91433) of the same substance?
The potentiation of meropenem was 64 fold.

And the FIC2 ([6]; with AZT)?
The FIC2 was under 0.0625.

What about the FIC2 ([6]; with CAZ) of the same substance?
Its FIC2 is under 0.0010.

And the FIC2 ([6]; with CEF)?
Its FIC2 is under 0.0625.

And the FIC2 ([6]; with DOR)?
Its FIC2 is under 0.0313.

And the FIC2 ([6]; with MER)?
The FIC2 was under 0.0156.

And the “MICCombination (2)” value ([7]; MIC of 2 combined with AZT)?
The value was 4 µg/mL.

And the “MICCombination (2)” value ([7]; MIC of 2 combined with CAZ)?
Its value is 16 µg/mL.

What about the “MICCombination (2)” value ([7]; MIC of 2 combined with CEF) of the same substance?
The value was 4 µg/mL.

What about the “MICCombination (2)” value ([7]; MIC of 2 combined with DOR) of the same substance?
The value was 4 µg/mL.

And the “MICCombination (2)” value ([7]; MIC of 2 combined with MER)?
The value was 8 µg/mL.

And the “MICCombination (2)” value ([7]; MIC of 2 combined with PIP)?
Its value is 0.5 µg/mL.

What about the FIC2 ([7]; with AZT) of the same substance?
Its FIC2 is under 0.0156.

What about the FIC2 ([7]; with CAZ) of the same substance?
The FIC2 was under 0.0625.

What about the FIC2 ([7]; with CEF) of the same substance?
The FIC2 was under 0.0156.

What about the FIC2 ([7]; with DOR) of the same substance?
The FIC2 was under 0.0156.

And the FIC2 ([7]; with MER)?
Its FIC2 is under 0.0313.

What about the FIC2 ([7]; with PIP) of the same substance?
The FIC2 was under 0.0020.

And the survival of larvae [8]?
The survival of larvae was 100%.

What about the “mortality of larvae, monotherapy” value ([9]; aztreonam […], meropenem 37.5 mg/kg, compound 2 100 mg/kg, after 24 h) of the same substance?
Its value is 100%.

What about the “activity by itself against MDR PA101885” value ([9]; in vitro and in vivo) of the same substance?
The value was “innately inactive”.

And the survival of larvae ([9]; meropenem + compound 2, 25+25 mg/kg, after 24 h)?
Its survival of larvae is 0%.

And the survival of larvae ([9]; meropenem + compound 2, 37.5+37.5 mg/kg, after 24 h)?
The survival of larvae was 85%.
